Key:
IRE1a [1] = test: IRE1a Endoribonuclease Nanoluciferase Assay (XBP1 luciferase reporter in 293T cells); assay type: cell-based, human; settings: Homo sapiens, HEK-293T, ER stressor, tested as Formic Acid Salt (37: HCl Salt)
Method in brief: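 293T cells transiently transfected with a PGK-Luc2-P2A-XBP1u-Nanoluciferase-Pest reporter, replated after 6 h, then treated next day with ER stressors ± inhibitors. After lysis, firefly luminescence then nanoluciferase luminescence read sequentially (1000 ms integration each).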

in vivo = settings: mouse, po, 30 mg/kg
IRE1a [2] = target: T1, IRE1a (Homo sapiens, UniProt O75460); test: In vitro FRET assay (IRE1a cleavage of XBP1 RNA probe); assay type: biochemical; settings: 2 nM SignalChem IRE1a, tested as Formic Acid Salt (37: HCl Salt)
T1 construct: purchased SignalChem
Method in brief: Human

293T cells = test: Growth assay (cytotoxicity); assay type: cell-based, human; settings: Formic Acid Salt (37: HCl Salt)
Protocol: A growth assay was performed to evaluate the compounds disclosed herein for cytotoxicity. Briefly, 5,000,000 293T cells were resuspended in 18 mL of cDMEM for a final concentration of […]. […] In a separate 96 well dilution plate, 199 uL cDMEM and 1 uL of DMSO or any one of the compounds disclosed herein (shown as Test Compound 1, 2, 3, 4, 5, or 6 below) were added to wells A4, A8, C4, C8, E4, E8, G4, and G8, 133.3 uL cDMEM was added to wells 1, 2, 3, 5, 6, and 7 in rows A, C, E and G of the dilution plate. Compounds were serially diluted leftwards in threefold dilutions (66.7 uL into 133.3 uL cDMEM). 20 uL of each dilution was transferred in duplicate (duplicates in vertical paired wells) to the cells plated in the 96-well plate shown in Table 5, to the total concentrations shown below. 200 uL cDMEM was addled to media wells (wells G5-H8). The plate was then placed in a humidified chamber for a […], and then photographed (media was more yellow in wells with potent cell growth). Absorbance was then measured at ˜[…] (lower for more acidic media) and ˜450 nM (higher for more acidic media).

hERG channel = target: T2, hERG channel (Homo sapiens, UniProt Q12809); test: hERG potassium ion channel automated planar clamp (QPatch) in stable CHO cell line; assay type: cell-based; settings: Formic Acid Salt (37: HCl Salt), read-out: hERG channel blockade Mean IC50
T2 construct: expressed in transfected cells
Protocol: Blockade of the cardiac ion channel coded by the hERG gene can lead to cardiac arrhythmia. […] To determine the viability of the compounds disclosed herein as pharmacological agents that would not affect the hERG channel blockade, a standard automated planar clamp method was employed to determine the IC50 for various test compounds on their inhibition of the channel. An electrophysiological assay was prepared to measure the electric current passing through the hERG channel expressed in a stable CHO cell line by applying the planar clamp method. This assay was performed using the automated QPatch platform (Sophion, Denmark) which allows fast and accurate electrophysiological characterization of the hERG ion channel and the determination of IC50 values for the test compounds, as shown in Table 9.

[3] = Bioavailability assay (pharmacokinetic study); settings: mouse; IV 1 mg/kg, PO 30 mg/kg (Compound A PO 10 mg/kg)
[4] = Metabolic assays of N,N-dimethyl compounds; assay type: in vitro ADME; settings: data not shown
[5] = test system: IRE1a-dependent XBP1 splicing; test: Inhibition of IRE1a-dependent XBP1 splicing in mice with metastatic ovarian cancer; assay type: in vivo, mouse; settings: single oral dose 45 mg/kg, 24 hours, FACS-isolated ascites cells
Protocol: Mice (n=3) with established metastatic ovarian cancer were orally gavaged with 45 mg/kg vehicle control or inhibitor dissolved in H2O. The Inhibitor was Compound C. Compound C is 2-chloro-N-(5-(2-(((1r,4r)-4-dimethylamino)cyclohexyl)amino)-8-ethylquinazolin-6-yl)-6-methylpyridin-2-yl)benzenesulfonamide, Compound 91, described herein. After 24 hours, mice were euthanized, ascites-resident cells were extracted and tumor cells, dendritic cells (DCs), and CD4+ T cells were isolated by FACS. The samples were used for subsequent if RT-qPCR analysis of beta-actin, XBP1s and total XBP1. Gene expression was evaluated by quantitative PCR for XBP1s and total XBP1 transcripts using the 2^(−ΔCT) method for calculating normalized gene expression. Gene expression levels were normalized to Actb transcripts. XBP1 splicing is calculated as XBP1s expression divided by total XBP1 expression. A single oral dose of Compound C suppressed IRE1a-dependent XBP1 splicing in tumor cells and relevant immune cells in vivo over 24 hours, FIG. 7.
Mice (n=3) with established metastatic ovarian cancer were orally gavaged with 45 mg/kg vehicle control or inhibitor dissolved in H2O. […] Gene expression was evaluated by quantitative PCR for XBP1s and total XBP1 transcripts using the 2^(−ΔCT) method for calculating normalized gene expression. […] XBP1 splicing is calculated as XBP1s expression divided by total XBP1 expression. […]

[6] = test system: IRE1a-mediated XBP1 splicing; test: Target engagement in pancreas and salivary gland (RT-qPCR XBP1 splicing); assay type: in vivo; settings: mouse, 30 mg/kg oral gavage, 6 hours; compared to control and Compound B
Protocol: Mice (n=3 per group) were orally gavaged with 30 mg/kg vehicle control or IRE1 inhibitors dissolved in H2O. After 6 hours, mice were euthanized and pancreas and salivary gland tissues were isolated, snap frozen on dry ice, and used for subsequent RT-qPCR analysis of beta-actin, XBP1s and total XBP1. Gene expression was evaluated by quantitative PCR for XBP1s and total XBP1 transcripts using the 2^(−ΔCT) method for calculating normalized gene expression. Gene expression levels were normalized to Actb transcripts. XBP1 splicing is calculated as XBP1s expression divided by total XBP1 expression.

IRE1a [7] = test: IRE1a phosphorylation inhibition assay (immunoblot, 293T cells, tunicamycin); assay type: cell-based, human
Protocol: Inhibition of ER stress-induced IRE1a phosphorylation and XBP1s protein accumulation in human 293T cells assessed. Immunoblot analysis was performed in human 293T cells lysates obtained from cells after exposure to the chemical ER stress-inducing agent tunicamycin, and optional treatment with Compound C. Lysates were probed with antibodies recognizing IRE1a, phosphorylated IRE1a, XBP1, or TATA-binding protein (TBP). (TBP) was blotted as a protein loading control. […] See FIG. 8, 20 nM was sufficient to reduce XBP1s protein levels below the limit of detection in this assay.

IRE1a/XBP1 pathway = test: Inhibition of endogenous XBP1 splicing in 293T cells with tunicamycin; assay type: cell-based, human
Protocol: Gene expression was evaluated by quantitative PCR for XBP1s and total XBP1 transcripts using the 2^(−ΔCT) method for calculating normalized gene expression. Gene expression levels were normalized to ACTB transcripts. XBP1 splicing was calculated as actin-normalized XBP1s expression divided by actin-normalized total XBP1 expression.

T1 sequence (O75460 19-977): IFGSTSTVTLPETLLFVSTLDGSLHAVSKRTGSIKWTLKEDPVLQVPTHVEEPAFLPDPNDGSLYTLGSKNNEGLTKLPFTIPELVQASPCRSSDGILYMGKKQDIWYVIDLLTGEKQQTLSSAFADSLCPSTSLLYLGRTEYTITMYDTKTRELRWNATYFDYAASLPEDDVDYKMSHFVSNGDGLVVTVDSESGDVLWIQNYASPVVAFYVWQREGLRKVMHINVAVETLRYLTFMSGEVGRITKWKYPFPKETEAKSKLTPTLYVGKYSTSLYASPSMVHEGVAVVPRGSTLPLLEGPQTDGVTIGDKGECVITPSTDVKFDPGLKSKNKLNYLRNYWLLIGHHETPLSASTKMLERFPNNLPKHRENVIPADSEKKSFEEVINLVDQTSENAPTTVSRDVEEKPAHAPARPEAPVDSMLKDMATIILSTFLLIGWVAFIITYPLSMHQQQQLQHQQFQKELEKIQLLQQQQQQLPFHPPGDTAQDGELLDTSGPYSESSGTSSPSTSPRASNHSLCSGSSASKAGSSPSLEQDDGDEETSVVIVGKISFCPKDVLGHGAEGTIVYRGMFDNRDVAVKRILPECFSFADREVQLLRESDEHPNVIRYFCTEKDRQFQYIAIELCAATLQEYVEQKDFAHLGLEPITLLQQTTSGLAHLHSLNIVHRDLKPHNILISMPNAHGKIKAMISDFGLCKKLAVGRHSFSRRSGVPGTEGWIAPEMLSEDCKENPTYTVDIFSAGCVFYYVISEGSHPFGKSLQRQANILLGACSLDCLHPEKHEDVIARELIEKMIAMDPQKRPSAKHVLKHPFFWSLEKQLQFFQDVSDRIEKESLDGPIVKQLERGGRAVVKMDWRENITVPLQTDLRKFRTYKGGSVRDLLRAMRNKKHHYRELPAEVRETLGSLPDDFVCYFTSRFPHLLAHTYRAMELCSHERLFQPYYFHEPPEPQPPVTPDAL
T2 sequence (Q12809 whole entry): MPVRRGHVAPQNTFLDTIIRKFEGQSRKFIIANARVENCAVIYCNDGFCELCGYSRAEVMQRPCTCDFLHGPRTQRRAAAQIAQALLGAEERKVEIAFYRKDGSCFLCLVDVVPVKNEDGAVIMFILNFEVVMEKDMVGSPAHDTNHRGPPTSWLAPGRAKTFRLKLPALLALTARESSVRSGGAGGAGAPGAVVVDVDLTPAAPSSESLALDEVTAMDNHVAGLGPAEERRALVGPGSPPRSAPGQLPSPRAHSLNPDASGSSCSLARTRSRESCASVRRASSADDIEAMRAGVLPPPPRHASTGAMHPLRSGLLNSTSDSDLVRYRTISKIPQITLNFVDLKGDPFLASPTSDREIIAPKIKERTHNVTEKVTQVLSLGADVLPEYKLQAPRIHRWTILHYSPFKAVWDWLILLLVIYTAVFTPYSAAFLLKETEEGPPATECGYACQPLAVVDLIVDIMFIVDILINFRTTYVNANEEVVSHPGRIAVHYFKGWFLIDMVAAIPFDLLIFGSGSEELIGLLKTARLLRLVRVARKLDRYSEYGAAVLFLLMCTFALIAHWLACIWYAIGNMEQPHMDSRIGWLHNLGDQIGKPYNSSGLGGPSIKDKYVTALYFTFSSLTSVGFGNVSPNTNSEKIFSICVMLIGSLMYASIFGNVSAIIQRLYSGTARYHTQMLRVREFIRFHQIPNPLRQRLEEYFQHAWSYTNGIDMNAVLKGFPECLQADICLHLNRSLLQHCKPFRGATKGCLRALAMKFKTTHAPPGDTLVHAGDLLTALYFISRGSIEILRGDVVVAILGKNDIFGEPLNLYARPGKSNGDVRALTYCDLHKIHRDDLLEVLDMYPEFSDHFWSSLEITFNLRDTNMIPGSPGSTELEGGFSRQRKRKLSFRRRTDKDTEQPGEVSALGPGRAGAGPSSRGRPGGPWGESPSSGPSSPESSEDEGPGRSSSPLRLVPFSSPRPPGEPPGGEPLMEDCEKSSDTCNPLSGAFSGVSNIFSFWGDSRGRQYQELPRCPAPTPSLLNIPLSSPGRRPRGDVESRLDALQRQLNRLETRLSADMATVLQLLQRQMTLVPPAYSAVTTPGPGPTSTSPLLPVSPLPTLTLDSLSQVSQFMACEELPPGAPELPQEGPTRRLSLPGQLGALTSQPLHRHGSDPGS

CCc1cc(-c2ccc(NS(=O)(=O)c3ccccc3Cl)nc2OC)cc2cnc(N[C@H]3CC[C@H](N)CC3)nc12 [Compound 37, N-(5-(2-(((1r,4r)-4-aminocyclohexyl)amino)-8-ethylquinazolin-6-yl)-6-methoxypyridin-2-yl)-2-chlorobenzene-sulfonamide] gave an EC50 (IRE1a [1]) of at most 0.005 µM, a bioavailability (in vivo) of 17% and an IC50 (IRE1a [2]) of at most 0.005 µM. The “% Growth at 0.5556 uM” value (293T cells; 0.5556 uM) was “D (D: >75% to ≤100%)”, the “% Growth at 1.667 uM” value (293T cells; 1.667 uM) was “C (C: >50% to ≤75%)” and the “% Growth at 5 uM” value (293T cells; 5 uM) was “B (B: >25% to ≤50%)”. For the same compound, the IC50 (hERG channel) was 10 to 50 µM.

For CCc1cc(-c2ccc(NS(=O)(=O)c3ccccc3Cl)nc2C)cc2cnc(N[C@H]3CC[C@H](N)CC3)nc12 [Compound A, N-(5-(2-(((1r,4r)-4-aminocyclohexyl)amino)-8-ethylquinazolin-6-yl)-6-methylpyridin-2-yl)-2-chlorobenzenesulfonamide], the oral bioavailability [3] was 4%.

For CCc1cc(-c2ccc(NS(=O)(=O)c3ccccc3Cl)nc2C)cc2cnc(N[C@H]3CC[C@H](N(C)C)CC3)nc12 [Compound C], the metabolism [4] was “removal of the methyl groups”, the “IRE1a-dependent XBP1 splicing in tumor cells and immune cells in vivo” value [5] was “suppressed” and the “IRE1a-mediated XBP1 splicing in pancreas and salivary gland” value [6] was “potently suppressed”. For the same compound, the “concentration sufficient to reduce XBP1s protein levels below the limit of detection” value (IRE1a [7]) was 20 nM, the IRE1a phosphorylation (IRE1a [7]; pre-incubation with compound) was “strongly repressed” and the “accumulation of XBP1s protein” value (IRE1a [7]; pre-incubation with compound) was “completely abrogated”. For the same compound, the “shift in potency between Compound A and Compound C” value (IRE1a/XBP1 pathway) was “approximately 3.6 ×”.

With CCc1cc(-c2ccc(NS(=O)(=O)c3ccccc3Cl)nc2OC)cc2cnc(N[C@H]3CC[C@H](N(C)C)CC3)nc12 [Compound D] the metabolism [4] was “removal of the methyl groups”, the “IRE1a-dependent XBP1 splicing in tumor cells and immune cells in vivo” value [5] was “suppressed” and the “IRE1a-mediated XBP1 splicing in pancreas and salivary gland” value [6] was “potently suppressed”.

— patent US12071424B2, “IRE1 small molecule inhibitors” (Cornell University, priority 2017, dated 2024)
